Assays:
[1] = test system: persistent mechanical pain in mouse models; design: method as in PMID 34039739; conditions: hindpaw injection; mouse plantar incision, CFA and paclitaxel models; cited from earlier work
[2] = test system: mechanical hypersensitivity in a mouse SNI model; design: method as in PMID 34039739; conditions: intra-plantar injection; cited from earlier work
[3] = test system: uninjured mice; design: method as in PMID 34039739; conditions: peripheral dosing; cited from earlier work
[4] = test system: trinitrobenzene sulfonic acid-induced colonic hypersensitivity in male rats; assay: colonic distension test in TNBS-induced colonic hypersensitivity model; format: in vivo, rat; conditions: for mean percentual colonic anti-hypersensitivity activity: mean of four trials (30, 50, 70, 120 min)
[5] = terminal plasma and brain exposure in female rats (PRS study); format: in vivo, rat; conditions: 3-30 mg/kg p.o.
Method: Briefly, total blood was collected by intra-cardiac puncture on anaesthetized (3% Isoflurane, 3 L/min) animals into pre-cooled K3EDTA tubes. […] At least 100–200 µL of plasma was gently collected and immediately frozen at −80 °C. After decapitation, the whole brain was collected, rinsed with fresh ice-cold 0.9% NaCl solution, and thereafter frozen in dry ice and stored in a polypropylene tube at −80 °C.

[6] = plasma and brain exposure in male rats (CCI study and satellite rats); format: in vivo, rat; conditions: independent of dose or sampling time
Method: Terminal samples for concentration analyses were also collected from HC-070-treated sciatic nerve-injured male animals at the end of the paw pressure test, and from female rats at the end of the last colonic distension test in the partial restraint stress (PRS) study. Briefly, total blood was collected by intra-cardiac puncture on anaesthetized (3% Isoflurane, 3 L/min) animals into pre-cooled K3EDTA tubes. Samples were gently mixed, placed on ice, and centrifuged at the latest within 30 min after collection at 1600× g or 1710× g for 10 min at 4 °C. At least 100–200 µL of plasma was gently collected and immediately frozen at −80 °C. After decapitation, the whole brain was collected, rinsed with fresh ice-cold 0.9% NaCl solution, and thereafter frozen in dry ice and stored in a polypropylene tube at −80 °C.

[7] = plasma protein binding, rapid equilibrium dialysis; format: in vitro ADME; conditions: rat plasma, 1 µg/mL, 37 °C, 4 h
Method: Plasma protein binding studies were carried out in male Wistar Hannover rat plasma with heparin as the anticoagulant. All plasma samples were obtained from BioreclamationIVT (Baltimore, MD, USA). A Pierce Rapid Equilibrium Dialysis Device (RED) was used for the experiments. Aliquots of plasma (300 µL) containing the compound of interest (1 µg/mL) and phosphate-buffered saline (PBS) (500 µL) were added to the sample chamber and buffer chamber, respectively, on the RED device. The loaded dialysis plate was sealed and placed on a pre-heated shaker, and incubated at physiological temperature (+37 °C) for 4 h. After the incubation, aliquots of 50 µL for the donor and 200 µL for the receiver were removed from the chambers and placed into a 96-well plate. Plasma (50 µL) was added to the wells containing the receiver samples and 200 µL of PBS was added to the wells containing the donor samples. Two volumes of ACN were added to each well, and the samples were mixed and centrifuged, after which the supernatant was analysed by LC-MS/MS.

[8] = brain homogenate binding, rapid equilibrium dialysis; format: in vitro ADME, rat; conditions: as fraction
Method: The brain homogenate binding study was carried out in male Wistar Hannover brain homogenate, obtained from BioreclamationIVT (Baltimore, MD, USA). Brains were homogenized with two volumes of PBS prior to initiating the experiment. The instrumentation, volume ratios, incubation conditions, and sample preparation were the same as described above for plasma protein binding (brain homogenate used instead of plasma).

[9] = test system: incised mice; design: method as in PMID 34039739; conditions: hindpaw administration; cited from earlier work
[10] = test system: mice; conditions: mouse, in vivo, po; cited from earlier work
[11] = test system: partial restraint stress-induced colonic hypersensitivity in female rats; assay: colonic distension test in partial restraint stress model; conditions: for percentual anti-hypersensitivity activity on colonic hypersensitivity: mean of three trials
Method: Animals were placed for 2 h in a plexiglas restraint cylinder in order to restrict, but not impede, body movements. Naïve control animals were allowed to move freely in their cages. Immediately after completion of the 2 h restraint stress period, 3 consecutive determinations of colonic sensitivity were performed every 20 min.
Colonic sensitivity was assessed by measuring the intra-colonic pressure required to induce a pain-related behavioral response during colonic distension (Electronic barostat, Distender Series IIRTM). Sedation is considered as a confounding factor in the assessment of pain, and therefore all experiments were performed in non-sedated conscious rats. In order to reduce bias, all experiments were performed by the same dedicated personnel within a study. The visceral pressure range was studied from 5 to 75 mmHg, but pain responses were typically evident at 30–35 mmHg. Briefly, a 5 cm balloon was gently inserted into the colon of conscious rats at 7 to 10 cm from the anus, and the catheter was taped to the base of the tail. After a 30 min acclimation period with the inserted balloon, colonic pressure was increased by 5 mmHg steps every 30 s, from 5 to 75 mmHg (cut-off), until pain-related elevation of the hind part of the rat body and/or a clearly visible abdominal contraction corresponding to severe cramp were evident.
The formula: ((Distension thresholdTNBS/PRS + veh − Distension thresholdnaïve + veh)/(Distension thresholdnaïve + veh)) × 100, was used to calculate percentual variation due to trinitrobenzene sulfonic acid administration or partial restraint stress, as compared to naïve rats. […] Statistical analyses were conducted using GraphPad Prism (version 8.4.2) and p < 0.05 was considered to represent a significant difference.

[12] = test system: CCI-induced mechanical hypersensitivity in male rats; assay: paw pressure test in chronic constriction injury (CCI) model
Method: Prior to behavioral studies, the rats were habituated to the experimental conditions and handling. The common sciatic nerve of the right hindpaw was injured at the level of the middle of the thigh. Proximal to the sciatic trifurcation, four loose ligatures were tied around it with about 1 mm spacing using Mersilk sutures in anaesthetized rats (Xylazine 10 mg/kg i.p., Ketamine 60 mg/kg i.p.). Great care was taken to tie the ligatures, such that the diameter of the nerve was seen to be just barely constricted. Sham animals received only a skin and muscle incision. Fourteen days after the surgery, individual baseline values of the withdrawal threshold evoked by squeezing of the hind limb between a flat surface and a blunt pointer with an analgesimeter (Ugo Basile, Gemonio, Italy) were determined on both hindpaws while the animal was gently held in a restrained position. The analgesimeter exerted a steadily increasing force, and the reaction threshold was determined as the pressure (g) required to elicit paw withdrawal and/or vocalization. […] Dosing and testing were performed in a random order.
Statistical analyses were conducted using GraphPad Prism (version 8.4.2) and p < 0.05 was considered to represent a significant difference.

[13] = test system: mustard oil-induced visceral pain-related behaviors and hindpaw mechanical hypersensitivity; conditions: intraperitoneal, and oral to a lesser extent; cited from earlier work
[14] = test system: rat spared nerve injury model of neuropathic pain; conditions: amygdaloid application; cited from earlier work

For c1ccc(Cn2c(NCc3ccco3)nc3ccccc32)cc1 [AC1903], the “effect on persistent mechanical pain” value [1] is given as “prevents the persistent mechanical pain”, the “effect on mechanical hypersensitivity” value [2] is given as “failed to attenuate” and the “effect on naïve mechanical sensitivity” value [3] is given as “did not change”.
For Cn1c(=O)n(CCCO)c(=O)c2c1nc(Oc1cccc(Cl)c1)n2Cc1ccc(Cl)cc1 [HC-070], the “effect on TNBS-induced colonic hypersensitivity (colonic distension threshold)” value (“effect … (colonic distension threshold)” below) ([4]; 3 mg/kg p.o., at 70 and 120 min) was “significantly and in a dose-dependent manner attenuated”, the “mean percentual colonic anti-hypersensitivity activity” value ([4]; 3 mg/kg p.o.) was 58% and the “effect … (colonic distension threshold)” value ([4]; 10 mg/kg p.o., all time points (30-120 min)) was “reversed”. For the same compound, the “mean percentual colonic anti-hypersensitivity activity” value ([4]; 10 mg/kg p.o.) was 99%, the “effect … (colonic distension threshold)” value ([4]; 30 mg/kg p.o., all time points (30-120 min)) was “reversed” and the “mean percentual colonic anti-hypersensitivity activity” value ([4]; 30 mg/kg p.o.) was 134%. For the same compound, the “KP,uu,BR (partitioning coefficient between unbound brain and plasma exposures)” value [5] was 0.5–0.8, the “KP,uu,BR (partitioning coefficient between unbound brain and plasma exposures)” value [6] was 0.4–0.6 and the plasma protein binding [7] was 99.5%. The “unbound fraction in rat brain homogenate” value [8] was 0.001, the “effect on established postoperative mechanical hypersensitivity” value [9] was “alleviated” and the “effect on locomotor activity” value [10] was “nor did oral HC-070 treatment alter the locomotor activity”. For the same compound, the “percentual anti-hypersensitivity activity on colonic hypersensitivity” value ([11]; 3 mg/kg p.o.) was 100%, the “percentual anti-hypersensitivity activity on colonic hypersensitivity” value ([11]; 10 mg/kg p.o.) was 181% and the “percentual anti-hypersensitivity activity on colonic hypersensitivity” value ([11]; 30 mg/kg p.o.) was 188%. For the same compound, the “effect on colonic sensibility after PRS” value ([11]; oral doses of 3, 10 and 30 mg/kg) was “dose-dependently restored”, the “reversal percentage of CCI-induced mechanical hypersensitivity, injured paw” value (“reversal percentage” for short) ([12]; 3 mg/kg p.o., 45 min) was 34% and the “effect on CCI-induced mechanical hypersensitivity (withdrawal threshold, injured paw)” value ([12]; 10 mg/kg p.o., 75 min) was “significantly attenuated”. The “reversal percentage” value ([12]; 10 mg/kg p.o., 75 min) was 51%, the “effect on CCI-induced mechanical hypersensitivity (withdrawal threshold, injured paw)” value ([12]; 30 mg/kg p.o., 45 min) was “significantly attenuated” and the “reversal percentage” value ([12]; 30 mg/kg p.o., 45 min) was 62%.
In the case of Cc1cc(N2CCCCC2)nc2ccccc12 [ML-204], the “effect on mustard oil-induced visceral pain-related behaviors and hindpaw mechanical hypersensitivity” value [13] is given as “dose-dependently attenuated” and the “effect on mechanical hypersensitivity and affective-like spontaneous pain-related behavior” value [14] is given as “dose-dependent suppression”.
For CN1CC[C@]23c4c5ccc(O)c4O[C@H]2[C@@H](O)C=C[C@H]3[C@H]1C5 [morphine], the “effect on PRS-lowered visceral pain threshold” value ([11]; 1 mg/kg s.c.) was “significant reversal”, the “percentual anti-hypersensitivity activity on colonic hypersensitivity” value ([11]; 1 mg/kg s.c.) was 272% and the “effect on mechanical withdrawal threshold of the non-injured control paw” value ([12]; 3 mg/kg s.c.) was “statistically significantly increased”. The “effect on sustained CCI-induced mechanical hypersensitivity (reversal)” value ([12]; 3 mg/kg s.c., first two time points (45, 75 min)) was “abolished”.

From paper PMC9964505 (International Journal of Molecular Sciences, 2023)
